Results from ChEMBL document CHEMBL1287675, “Substituted spiro [2.3'] oxindolespiro [3.2″]-5,6-dimethoxy-indane-1″-one-pyrrolidine analogue as inhibitors of acetylcholinesterase” (Bioorg Med Chem Lett, 2010).

Each compound was assayed against Acetylcholinesterase (Homo sapiens, UniProt P22303) (assay: Inhibition of human acetyl cholinesterase by Ellmann's method).
Chain of Acetylcholinesterase (P22303 whole entry): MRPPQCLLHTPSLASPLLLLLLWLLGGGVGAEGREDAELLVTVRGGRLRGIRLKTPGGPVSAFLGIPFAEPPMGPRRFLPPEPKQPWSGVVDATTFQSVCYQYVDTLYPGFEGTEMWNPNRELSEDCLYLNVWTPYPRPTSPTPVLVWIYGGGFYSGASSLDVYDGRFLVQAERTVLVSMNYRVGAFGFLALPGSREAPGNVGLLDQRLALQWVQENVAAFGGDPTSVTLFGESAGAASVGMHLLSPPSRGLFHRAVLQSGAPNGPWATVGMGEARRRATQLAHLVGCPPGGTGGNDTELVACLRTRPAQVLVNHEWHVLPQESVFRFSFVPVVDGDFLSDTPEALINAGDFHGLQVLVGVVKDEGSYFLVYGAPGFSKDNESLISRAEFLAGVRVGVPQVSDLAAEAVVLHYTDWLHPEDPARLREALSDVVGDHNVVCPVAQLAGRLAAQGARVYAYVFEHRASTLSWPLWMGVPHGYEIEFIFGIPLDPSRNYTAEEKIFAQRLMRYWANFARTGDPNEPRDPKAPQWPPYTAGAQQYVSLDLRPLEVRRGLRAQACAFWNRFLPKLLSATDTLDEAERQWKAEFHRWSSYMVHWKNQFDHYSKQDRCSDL

In order of rising IC50:
1. COc1cc2c(cc1OC)C(=O)C1(C2)C(c2ccc(F)cc2)CN(C)C12C(=O)Nc1ccccc12 (centres undefined)  2.12 µM
2. COc1cc2c(cc1OC)C(=O)C1(C2)C(c2ccccc2)CN(C)C12C(=O)Nc1ccccc12 (centres undefined)  3.12 µM
3. COc1cc2c(cc1OC)C(=O)C1(C2)C(c2ccccc2)C(c2ccccc2)NC12C(=O)Nc1ccc([N+](=O)[O-])cc12 (centres undefined)  3.7 µM
4. COc1cc2c(cc1OC)C(=O)C1(C2)C(c2ccc(F)cc2)CN(C)C12C(=O)Nc1ccc(Cl)cc12 (centres undefined)  3.7 µM
5. COc1cc2c(cc1OC)C(=O)C1(C2)C(c2ccccc2Cl)C(c2ccccc2)NC12C(=O)Nc1ccc([N+](=O)[O-])cc12 (centres undefined)  4.2 µM
6. COc1ccc(C2CN(C)C3(C(=O)Nc4ccccc43)C23Cc2cc(OC)c(OC)cc2C3=O)cc1OC (centres undefined)  4.2 µM
7. COc1ccc(C2CN(C)C3(C(=O)Nc4ccc(Cl)cc43)C23Cc2cc(OC)c(OC)cc2C3=O)cc1OC (centres undefined)  4.2 µM
8. COc1cc2c(cc1OC)C(=O)C1(C2)C(c2ccccc2Cl)CN(C)C12C(=O)Nc1ccccc12 (centres undefined)  4.3 µM
9. COc1cc2c(cc1OC)C(=O)C1(C2)C(c2ccccc2)C(c2ccccc2)NC12C(=O)Nc1ccccc12 (centres undefined)  5.12 µM
10. COc1ccc(C2C(c3ccccc3)NC3(C(=O)Nc4ccccc43)C23Cc2cc(OC)c(OC)cc2C3=O)cc1OC (centres undefined)  5.2 µM
11. COc1ccc(C2CN(C)C3(C(=O)Nc4ccc([N+](=O)[O-])cc43)C23Cc2cc(OC)c(OC)cc2C3=O)cc1OC (centres undefined)  6.1 µM
12. COc1cc2c(cc1OC)C(=O)C1(C2)C(c2ccccc2Cl)CN(C)C12C(=O)Nc1ccc(Cl)cc12 (centres undefined)  6.6 µM
13. COc1cc2c(cc1OC)C(=O)C1(C2)C(c2ccc(F)cc2)C(c2ccccc2)NC12C(=O)Nc1ccccc12 (centres undefined)  6.86 µM
14. COc1cc2c(cc1OC)C(=O)C1(C2)C(c2ccccc2)C(c2ccccc2)NC12C(=O)Nc1ccc(Cl)cc12 (centres undefined)  7.26 µM
15. COc1cc2c(cc1OC)C(=O)C1(C2)C(c2ccccc2Cl)C(c2ccccc2)NC12C(=O)Nc1ccccc12 (centres undefined)  7.3 µM
16. COc1cc2c(cc1OC)C(=O)C1(C2)C(c2ccccc2Cl)CN(C)C12C(=O)Nc1ccc([N+](=O)[O-])cc12 (centres undefined)  7.6 µM
17. COc1ccc(C2C(c3ccccc3)NC3(C(=O)Nc4ccc(Cl)cc43)C23Cc2cc(OC)c(OC)cc2C3=O)cc1OC (centres undefined)  8.26 µM
18. COc1cc2c(cc1OC)C(=O)C1(C2)C(c2ccc(F)cc2)CN(C)C12C(=O)Nc1ccc([N+](=O)[O-])cc12 (centres undefined)  8.6 µM
19. COc1cc2c(cc1OC)C(=O)C1(C2)C(c2ccc(F)cc2)C(c2ccccc2)NC12C(=O)Nc1ccc(Cl)cc12 (centres undefined)  9.86 µM
20. COc1cc2c(cc1OC)C(=O)C1(C2)C(c2ccccc2)CN(C)C12C(=O)Nc1ccc(Cl)cc12 (centres undefined)  11.2 µM
21. COc1cc2c(cc1OC)C(=O)C1(C2)C(c2ccccc2Cl)C(c2ccccc2)NC12C(=O)Nc1ccc(Cl)cc12 (centres undefined)  12.2 µM
22. COc1cc2c(cc1OC)C(=O)C1(C2)C(c2ccccc2)CN(C)C12C(=O)Nc1ccc([N+](=O)[O-])cc12 (centres undefined)  13.2 µM
23. COc1cc2c(cc1OC)C(=O)C1(C2)C(c2ccc(F)cc2)C(c2ccccc2)NC12C(=O)Nc1ccc([N+](=O)[O-])cc12 (centres undefined)  14.3 µM
24. COc1ccc(C2C(c3ccccc3)NC3(C(=O)Nc4ccc([N+](=O)[O-])cc43)C23Cc2cc(OC)c(OC)cc2C3=O)cc1OC (centres undefined)  15.4 µM
